Where a name gives a salt, the structure may show the parent alone.
Columns and labels:
[1] = Solubility of crude forms compared with other crude forms; type: physicochemical
[2] = oral administration; cited from earlier work

| SMILES | solubility compared to other crude forms previously reported [1] | peak plasma levels occurring (time following dosing) [2] |
| --- | --- | --- |
| COC(=O)C1=C(C)NC(C)=C(C(=O)OC(C)(C)CN(C)CCC(c2ccccc2)c2ccccc2)C1c1cccc([N+](=O)[O-])c1 (centres unmarked) [Form (A), lercanidipine hydrochloride] | higher solubility | – |
| COC(=O)C1=C(C)NC(C)=C(C(=O)OC(C)(C)CN(C)CCC(c2ccccc2)c2ccccc2)C1c1cccc([N+](=O)[O-])c1 (centres unmarked) [Lercanidipine, methyl 1,1,N-trimethyl-N-(3,3-diphenylpropyl)-2-aminoethyl 1,4-dihyaro-2,6-dimethyl-4-(3-nitrophenyl)pyridine-3,5-dicarboxylate] | – | 2 to 3 h |
